Consider one compound from patent publication US20050239735A1, “Enhancement of immune responses” (3M Innovative Properties Company, priority 2003, published 2005).

For test [1], the system named is adherent cells from human PBMC. As to the kind of experiment: Type I IFN production by adherent cells from human PBMC, virus neutralization bioassay of supernatants. The class given is cell-based. As to the method: (§1) The amount of Type I interferon (IFN) and tumor necrosis factor-α (TNF-α) produced by the cells in response to the treatment is also recorded in Table I.
(§2) Briefly, adherent cells from human PBMC were treated with 1-100 U/mL recombinant IFN-α (Lee BioMolecular, San Diego, Calif.) for 24 hours, washed, and then treated with IRM (a concentrated solution of IRM in cell culture medium was added to reach the final concentration indicated in Table I) for an additional 24 hours. A separate group of control cells were treated only with IRM for 24 hours. Cell-free supernatants were then isolated from all of the cultures and analyzed for Type I IFN or TNF-α.
(§3) Type I IFN production was assayed using a virus neutralization bioassay using A549 human lung carcinoma cells challenged with encephalomyocarditis. The details of the bioassay method have been described by G. L. Brennan and L. H. Kronenberg in “Automated Bioassay of Interferons in Micro-test Plates”, Biotechniques, June/July, 78, 1983, incorporated herein by reference. Briefly stated the method is as follows: A549 cells are incubated with dilutions of samples or a standard interferon at 37° C. for 24 hours. The incubated cells are then infected with an inoculum of encephalomyocarditis virus. The infected cells are incubated for an additional 24 hours at 37° C. before evaluating for viral cytopathic effect. The viral cytopathic effect is quantified by staining with crystal violet followed by visual scoring of the plates. Results are expressed as IFN-α reference units/mL based on the value obtained for NIH Human Leukocyte IFN standard. TNF-α production was determined by ELISA (Biosource International, Inc., Camarillo, Calif.).
(§4) Adherent cells are obtained and prepared as described in Example 1. The cells are pre-treated as described in Example 1 with either poly(I:C), recombinant IFN-γ, recombinant IFN-α, or receive no pre-treatment. The cells are washed as described in Example 1, then treated as described in Example 1 with either IRM1, IRM2, IRM3, IRM4, IRM5, IRM6, IRM7, IRM8, or IRM9 for 24 hours.
(§5) Cell free supernatants are isolated from all of the cultures and analyzed for Type I IFN or TNF-α.

Test [2] relates to adherent cells from human PBMC. As to the kind of experiment: TNF-α production by adherent cells from human PBMC, ELISA of supernatants. Type of test: cell-based. The protocol: as §1, §2, §3, §4, §5
For orientation: In an ELISA, binding on a coated surface is turned into a signal by an enzyme label.

Where [3] appears, read: IRM1 0.3 μM for 24 hours after pre-treatment with 1-100 U/mL recombinant IFN-α for 24 hours, washed.
Where [4] appears, read: IRM1 0.3 μM for 24 hours, no pre-treatment.
Where [5] appears, read: IRM1 3.0 μM for 24 hours after pre-treatment with 1-100 U/mL recombinant IFN-α for 24 hours, washed.
Setting [6] is: IRM1 3.0 μM for 24 hours, no pre-treatment.

As to `Cc1nc2c(N)nc3ccccc3c2n1CC(C)(C)O` [IRM1, 4-amino-α,α,2-trimethyl-1H-imidazo[4,5-c]quinoline-1-ethanol], the IFN-α in test [1] (setting [3]) is recorded as 3,788 U/mL; in test [1] (setting [4]), 5 U/mL; in test [1] (setting [5]) it was 3,788 U/mL; in test [1] (setting [6]), 5 U/mL. Further, the TNF-α in test [2] (setting [3]) amounted to 114 pg/mL; in test [2] (setting [4]) it was 437 pg/mL; in test [2] (setting [5]), 284 pg/mL; in test [2] (setting [6]) it was 3295 pg/mL.
